Results reported in ChEMBL document CHEMBL3507680, “University of Dundee, Gates Library screen for HepG2 cell viability”.

Test: Human HepG2 cell viability assay in 384 well format
Assay type: toxicity, cell-based
Design: dose 125 nL, time 70.5 hour; cytotoxicity at 70.5 h: concentration not given beside the values
Settings: HepG2 cells, read-out: Inhibition

CCCN1CCc2nc(N3CCOCC3)nc(NC(C)C)c2C1 gave a cytotoxicity at 70.5 h of -8.9%.
Cc1nc(N2CCOCC2)nc2c1CN(CC(=O)N(C)C)CC2 showed a cytotoxicity at 70.5 h of -13.5%.
COCC1CN(C(=O)c2cccs2)Cc2nccn2C1 (configuration not stated) gave a cytotoxicity at 70.5 h of -8.64%.
For COCCC(=O)N1CCC2(CCN(Cc3cccc(F)c3)C2)C1 (configuration not stated), the cytotoxicity at 70.5 h was 24.8%.
Fc1cnc(NCC2Cn3nnc(-c4ccccc4)c3CO2)nc1 (configuration not stated) showed a cytotoxicity at 70.5 h of 24.4%.
Work on Fc1cccc(-c2nnn3c2COC(CNc2ncccn2)C3)c1 (configuration not stated) yielded a cytotoxicity at 70.5 h of 26.8%.
c1csc(CN2CC[C@H]3O[C@@H](COCC4CC4)CC[C@H]32)c1 gave a cytotoxicity at 70.5 h of 27%.
In the case of CCCS(=O)(=O)NC1CCc2c(ccc(=O)n2CC2CC2)C1 (configuration not stated), the cytotoxicity at 70.5 h is reported as -8.69%.
COCCN1CCn2cc(CN(C)Cc3ccco3)nc2C1 showed a cytotoxicity at 70.5 h of -7.59%.
For c1ccc(-c2nnn3c2COC(CNCC2CC2)C3)cc1 (configuration not stated), the cytotoxicity at 70.5 h was -0.253%.
In the case of Cc1ccc2c(n1)N(CCN(C)C)CCN(C(=O)N1CCOCC1)C2, the cytotoxicity at 70.5 h is reported as -3.39%.
C[C@H]1C[C@H]2CN(C(=O)CCOc3ccccc3)CC[C@H]2O1 gave a cytotoxicity at 70.5 h of -1.04%.
With Cn1cccc1C(=O)N1CCn2cc(CN3CCCC3)nc2C1 the cytotoxicity at 70.5 h was -1.14%.
C[C@H]1C[C@H]2CN(C(=O)CC3CC3)CC[C@H]2O1 gave a cytotoxicity at 70.5 h of -7.47%.
CCC1(CO)CCCN(C(=O)c2cc(COc3cccc(F)c3)[nH]n2)C1 (configuration not stated) showed a cytotoxicity at 70.5 h of -3.53%.
Cc1nc[nH]c1CN1CCCC12CCN(c1ccccn1)CC2 gave a cytotoxicity at 70.5 h of -3.64%.
Compound CN(C)CCN1CC2(CCC1=O)CCN(C(=O)c1ccn(C)n1)CC2 has a cytotoxicity at 70.5 h of -2.52%.
Work on CCn1c(C2CCCN(Cc3ccnc4ccccc34)C2)nn(C)c1=O (configuration not stated) yielded a cytotoxicity at 70.5 h of -7.68%.
For CCC[C@H]1CN(S(=O)(=O)c2ccc(Cl)cc2)C[C@@H]1NC(C)=O, the cytotoxicity at 70.5 h was 22.5%.
Work on COc1cc(Oc2ccc(C#N)cn2)ccc1CN1CCCC1 yielded a cytotoxicity at 70.5 h of -5.77%.
With O=C(NCCC1CCCCO1)c1coc(COc2ccc(F)cc2)n1 (configuration not stated) the cytotoxicity at 70.5 h was -6.58%.
With OC1(CN2CCC(Oc3cccc(C(F)(F)F)c3)CC2)CCNC1 (configuration not stated) the cytotoxicity at 70.5 h was -7.31%.
In the case of O=C(O)c1cccnc1N1CCN(Cc2ccc(F)cc2)C(CCO)C1 (configuration not stated), the cytotoxicity at 70.5 h is reported as 22.4%.
In the case of O=C(c1ccc(-n2cccn2)cc1Cl)N1CCCC(O)(CO)C1 (configuration not stated), the cytotoxicity at 70.5 h is reported as -4.68%.
Compound N[C@H]1CN(CCCOc2ccccc2)C[C@@H]1C1CC1 has a cytotoxicity at 70.5 h of -3.74%.
Compound Cc1nccn1CCC(=O)N1CCCN(CCCc2ccccc2)CC1 has a cytotoxicity at 70.5 h of 1.37%.
Work on O=C(c1cccc(-c2ncc[nH]2)c1)N1CC[C@H](CO)[C@@H](O)C1 yielded a cytotoxicity at 70.5 h of -2.73%.
For Cc1cc(N2CCCC(N(C)C)C2)n2nc(C)cc2n1 (configuration not stated), the cytotoxicity at 70.5 h was -17%.
For Cc1noc2ncnc(NC(CC(C)(C)C)c3cccnc3)c12 (configuration not stated), the cytotoxicity at 70.5 h was -14%.
Compound c1ccc(-c2cccc(N3CCC(NCCc4cscn4)CC3)c2)cc1 has a cytotoxicity at 70.5 h of -7.94%.
Compound CN1CSC[C@H]1C(=O)N1CCC(Cc2ccccc2F)CC1 has a cytotoxicity at 70.5 h of -4.33%.
Work on CN(Cc1cc(C2CC2)on1)C(=O)CN1CC(c2ccccc2)CC1=O (configuration not stated) yielded a cytotoxicity at 70.5 h of -8.22%.
CCc1nc(CNC(=O)c2ccc(C(C)N3CCCCC3)o2)cc(=O)[nH]1 (configuration not stated) gave a cytotoxicity at 70.5 h of -6.44%.
Compound Cc1cc(=O)c(C(=O)N2CCC(C(O)Cc3ccccc3)CC2)c(C)[nH]1 (configuration not stated) has a cytotoxicity at 70.5 h of -14.4%.
Cc1ccccc1OC1(C(=O)O)CCN(C(=O)CCc2ccco2)CC1 showed a cytotoxicity at 70.5 h of -3.93%.
With COCCN(CCOC)c1nc2c(s1)c(C)nn2C the cytotoxicity at 70.5 h was -13.8%.
With Cc1c[nH]c(CN2CCCCC2CCn2cccn2)c(C)c1=O (configuration not stated) the cytotoxicity at 70.5 h was -10.2%.
For COc1ccc(-c2cc(C3CC3)c(C#N)c(N)n2)cc1F, the cytotoxicity at 70.5 h was 11.2%.
Compound Cc1cc(C)n(CCCN(C)C(=O)[C@H]2CCCO2)n1 has a cytotoxicity at 70.5 h of -14.9%.
O=C(c1ccc(-c2cccc3c2CCNC3)o1)N1CCCC1 gave a cytotoxicity at 70.5 h of -9.64%.
Cc1ccc(-c2nc3cc(S(=O)(=O)N4CCCC4)ccc3n2C)o1 showed a cytotoxicity at 70.5 h of -11.7%.
Compound CCC(C(=O)NCC1CCN(c2cnn(C)c(=O)c2)CC1)n1cccn1 (configuration not stated) has a cytotoxicity at 70.5 h of -7.23%.
With Cc1nc2cc(OCc3nc(C(=O)NC(CO)CO)co3)ccc2s1 the cytotoxicity at 70.5 h was -8.5%.
CCn1c(CN(C)C)nnc1C1CCN(Cc2ccc(Cl)cc2)CC1 gave a cytotoxicity at 70.5 h of 0.347%.
COc1ccc(-c2nccn2CCN2CCCCC2)c(OC)c1OC showed a cytotoxicity at 70.5 h of 4.66%.
CN(C)CCNc1cc(-c2ncccc2C(F)(F)F)c2cc[nH]c2n1 showed a cytotoxicity at 70.5 h of -6.02%.
In the case of Cc1cccnc1CN1CCN(Cc2ccc(-c3cc[nH]n3)o2)CC1, the cytotoxicity at 70.5 h is reported as -7.65%.
For O=C1CC(NS(=O)(=O)N2CCOCC2)CN1CCc1ccccc1 (configuration not stated), the cytotoxicity at 70.5 h was -3.7%.
With Cc1ccccc1N1CCCN(C(=O)CN2C(=O)OC[C@@H]2C(C)C)CC1 the cytotoxicity at 70.5 h was 25.8%.
Compound O=C1NCCN2CCN(C(=O)NCCc3ccccc3)CC12 (configuration not stated) has a cytotoxicity at 70.5 h of -9.06%.
CCn1c(CN(C)C)nnc1C1CCN(Cc2ccc(C)s2)CC1 showed a cytotoxicity at 70.5 h of -2.28%.
Work on Cc1ccc(CSc2nc(N)cc(NCCC(N)=O)n2)cc1 yielded a cytotoxicity at 70.5 h of -0.193%.
Compound CN(CCc1ccccn1)C(=O)CCC1CCCN(c2cnccn2)C1 (configuration not stated) has a cytotoxicity at 70.5 h of 2.36%.
In the case of CN(Cc1nc(-c2ccccc2)no1)C(=O)CNS(C)(=O)=O, the cytotoxicity at 70.5 h is reported as -8.66%.
Work on Cc1cc(N2CCN(C(=O)[C@@H]3C[C@@H]4C=C[C@H]3C4)CC2)cc(C)n1 yielded a cytotoxicity at 70.5 h of -15.6%.
Compound CC(C)[C@@H]1CN(S(=O)(=O)Cc2ccccc2)C[C@H]1C(=O)O has a cytotoxicity at 70.5 h of -3.52%.
With CC(=O)c1cc(CN2C[C@H]3CC[C@@H]2CN(S(C)(=O)=O)C3)cs1 the cytotoxicity at 70.5 h was 13.8%.
With Cc1nc2c(c(=O)n1C)CN(C(=O)C1CCCN(C(N)=O)C1)C2 (configuration not stated) the cytotoxicity at 70.5 h was -4.13%.
Cc1occc1C(=O)N1Cc2nccn2CC(CN2CCOCC2)C1 (configuration not stated) showed a cytotoxicity at 70.5 h of -6.67%.
For COCCN1CCCC2(CCN(c3ccsc3)C2=O)C1 (configuration not stated), the cytotoxicity at 70.5 h was -7.27%.
For COCCC(=O)N1CCC2(CCN(Cc3cccc(F)c3)CC2)C1, the cytotoxicity at 70.5 h was -4.51%.
In the case of COCCNC(=O)[C@H]1C[C@@H]2CCN(CCc3ccccc3)C[C@H]2O1, the cytotoxicity at 70.5 h is reported as -11.2%.
O=C(NCC1CC1)[C@H]1C[C@@H]2CCN(CCc3ccccc3)C[C@H]2O1 gave a cytotoxicity at 70.5 h of -4.59%.
Compound Cc1ncsc1CN1C[C@@H]2COC[C@]2(C(=O)NCc2ccccn2)C1 has a cytotoxicity at 70.5 h of -9.2%.
Compound Cc1ncsc1CN1C[C@@H]2COC[C@]2(C(=O)NCc2cccnc2)C1 has a cytotoxicity at 70.5 h of -14.8%.
c1cncc(CN2CCCn3nnc(COCC4CC4)c3C2)c1 gave a cytotoxicity at 70.5 h of -9.26%.
With Fc1cccc(N2CCCC3(CN(Cc4ccco4)CCO3)C2)c1 (configuration not stated) the cytotoxicity at 70.5 h was -11.7%.
Cc1ccc2c(n1)N(CCN(C)C)CCN(C(=O)c1ccoc1)C2 showed a cytotoxicity at 70.5 h of -11.8%.
Cn1cc(CN2CC[C@H]3O[C@@H](COCc4cccnc4)CC[C@H]32)cn1 showed a cytotoxicity at 70.5 h of -12%.
Cn1cc(CN2CCOC3(CCCN(c4cccc(F)c4)C3)C2)cn1 (configuration not stated) gave a cytotoxicity at 70.5 h of -7.93%.
Work on Cc1ccc(CN2CCOC3(CCCN(c4cccc(F)c4)C3)C2)o1 (configuration not stated) yielded a cytotoxicity at 70.5 h of -6.42%.
With Fc1ccc(CN2CC[C@H]3O[C@@H](COCc4cccnc4)CC[C@H]32)cc1 the cytotoxicity at 70.5 h was -6.39%.
In the case of c1ccc(COC[C@H]2CC[C@H]3[C@H](CCN3Cc3cccs3)O2)nc1, the cytotoxicity at 70.5 h is reported as -3.77%.
With CCCC(=O)N1CCN(CCN(C)C)c2nc(C)ccc2C1 the cytotoxicity at 70.5 h was -2.97%.
In the case of CN(Cc1cn2c(n1)CN(Cc1ccc(F)cc1)CC2)Cc1ccco1, the cytotoxicity at 70.5 h is reported as -8.36%.
c1ccc(COC[C@H]2CC[C@H]3[C@H](CCN3Cc3cccnc3)O2)nc1 showed a cytotoxicity at 70.5 h of 9.23%.
Work on COc1ccc(CN2C[C@@H]3COC[C@@H](N4CCN(C)CC4)[C@@H]3C2)cc1 yielded a cytotoxicity at 70.5 h of 0.325%.
